According to ChEMBL document CHEMBL4350981, “Salinomycin and its derivatives - A new class of multiple-targeted "magic bullets"” (Eur J Med Chem, 2019):
Values after ≈ are worked out from the molar mass of the structure shown.

Assays:
[1] = test system: Staphylococcus aureus; experiment: Antibacterial activity against methicillin-sensitive Staphylococcus aureus; type: functional
[2] = test system: Staphylococcus aureus; experiment: Antibacterial activity against methicillin-resistant Staphylococcus aureus; type: functional
[3] = test system: Trypanosoma brucei; experiment: Trypanocidal activity against bloodstream forms of Trypanosoma brucei […] incubated for 24 hrs followed by compound wash out after 72 hrs; type: functional
[4] = test system: Staphylococcus epidermidis; experiment: Antibacterial activity against methicillin-resistant Staphylococcus epidermidis; type: functional
[5] = test system: Bacillus anthracis; experiment: Antibacterial activity against Bacillus anthracis; type: functional
[6] = test system: Bacillus subtilis; experiment: Antibacterial activity against Bacillus subtilis; type: functional
[7] = test system: Mycolicibacterium phlei; experiment: Antibacterial activity against Mycobacterium phlei; type: functional
[8] = test system: Staphylococcus aureus; experiment: Antibacterial activity against Staphylococcus aureus; type: functional
[9] = test system: Micrococcus luteus; experiment: Antibacterial activity against Sarcina lutea; type: functional
[10] = test system: Staphylococcus aureus; experiment: Antibacterial activity against Staphylococcus aureus FDA 209P by agar diffusion method; type: functional
[11] = test system: Mycobacteroides abscessus; experiment: Antimycobacterial activity against Mycobacterium abscessus ATCC 19977; type: functional
[12] = test system: Alternaria kikuchiana; experiment: Antimicrobial activity against Alternaria kikuchiana NIAS by agar diffusion method; type: functional
[13] = test system: Alternaria kikuchiana; experiment: Antimicrobial activity against Alternaria kikuchiana A-14 by agar diffusion method; type: functional
[14] = test system: Mycobacterium avium; experiment: Antimycobacterial activity against Mycobacterium avium IFO 315 by agar diffusion method; type: functional
[15] = test system: Mycolicibacterium phlei; experiment: Antimycobacterial activity against Mycobacterium phlei IPCR by agar diffusion method; type: functional
[16] = test system: Pyricularia oryzae; experiment: […] activity against Pyricularia oryzae by agar diffusion method; type: functional
[17] = test system: Xanthomonas oryzae; experiment: […] activity against Xanthomonas oryzae by agar diffusion method; type: functional
[18] = test system: Human immunodeficiency virus 1; experiment: Antiviral activity against HIV1; type: functional, organism-based
[19] = test system: Human immunodeficiency virus 1; experiment: Antiviral activity against HIV1 infected in U937 cells; type: functional, organism-based; conditions: Human immunodeficiency virus 1, U-937
[20] = test system: Influenza A virus H3N2; experiment: Antiviral activity against Influenza A virus (A/Hong Kong/7/1987(H3N2)) infected in MDCK cells after 3 days by MTT assay; type: functional, organism-based; conditions: 72 h

SMILES | MIC [2] [µg/mL] | MIC [4] [µg/mL] | MIC [6] [µg/mL] | MIC [7] [µg/mL] | MIC [8] [µg/mL] | MIC [9] [µg/mL] | other results
CC[C@@H](C(=O)[C@@H](C)[C@@H](O)[C@H](C)[C@@H]1O[C@@H]([C@@H](CC)C(=O)Nc2ccccc2)CC[C@@H]1C)[C@H]1O[C@]2(C=C[C@@H](O)[C@]3(CC[C@@](C)([C@H]4CC[C@](O)(CC)[C@H](C)O4)O3)O2)[C@H](C)C[C@@H]1C | 4 (≈ 4.84 µM) | – | – | – | – | – | MIC [1]: 2 µg/mL (≈ 2.42 µM)
CCCCNC(=O)[C@H](CC)[C@H]1CC[C@H](C)[C@H]([C@@H](C)[C@H](O)[C@H](C)C(=O)[C@H](CC)[C@H]2O[C@]3(C=C[C@@H](O)[C@]4(CC[C@@](C)([C@H]5CC[C@](O)(CC)[C@H](C)O5)O4)O3)[C@H](C)C[C@@H]2C)O1 | – | – | – | – | – | – | GI50 [3]: 40 nM
CC[C@@H](C(=O)[C@@H](C)[C@@H](O)[C@H](C)[C@@H]1O[C@@H]([C@@H](CC)C(=O)On2nnc3ccccc32)CC[C@@H]1C)[C@H]1O[C@]2(C=C[C@@H](O)[C@]3(CC[C@@](C)([C@H]4CC[C@](O)(CC)[C@H](C)O4)O3)O2)[C@H](C)C[C@@H]1C | – | – | – | – | – | – | MIC [1]: 1 to 2 µg/mL (≈ 1.15 to 2.3 µM)
CC[C@@H](C(=O)[C@@H](C)[C@@H](O)[C@H](C)[C@@H]1O[C@@H]([C@@H](CC)C(=O)N(CC)CC)CC[C@@H]1C)[C@H]1O[C@]2(C=C[C@@H](O)[C@]3(CC[C@@](C)([C@H]4CC[C@](O)(CC)[C@H](C)O4)O3)O2)[C@H](C)C[C@@H]1C | – | 4 to 8 (≈ 4.96 to 9.92 µM) | – | – | – | – | MIC [5]: 1 µg/mL (≈ 1.24 µM)
CCCN(CCC)C(=O)[C@H](CC)[C@H]1CC[C@H](C)[C@H]([C@@H](C)[C@H](O)[C@H](C)C(=O)[C@H](CC)[C@H]2O[C@]3(C=C[C@@H](O)[C@]4(CC[C@@](C)([C@H]5CC[C@](O)(CC)[C@H](C)O5)O4)O3)[C@H](C)C[C@@H]2C)O1 | – | 4 to 8 (≈ 4.8 to 9.59 µM) | – | – | – | – | MIC [5]: 4 µg/mL (≈ 4.8 µM)
CC[C@@H](C(=O)[C@@H](C)[C@@H](O)[C@H](C)[C@@H]1O[C@@H]([C@@H](CC)C(=O)OC[C@H]2O[C@@H](n3cc(F)c(=O)[nH]c3=O)C[C@@H]2O)CC[C@@H]1C)[C@H]1O[C@]2(C=C[C@@H](O)[C@]3(CC[C@@](C)([C@H]4CC[C@](O)(CC)[C@H](C)O4)O3)O2)[C@H](C)C[C@@H]1C | 8.17 to 32.7 (≈ 8.34 to 33.4 µM) | 8.17 to 32.7 (≈ 8.34 to 33.4 µM) | – | – | – | – | –
CC[C@@H](C(=O)[C@@H](C)[C@@H](O)[C@H](C)[C@@H]1O[C@@H]([C@@H](CC)C(=O)OCC(F)(F)F)CC[C@@H]1C)[C@H]1O[C@]2(C=C[C@@H](O)[C@]3(CC[C@@](C)([C@H]4CC[C@](O)(CC)[C@H](C)O4)O3)O2)[C@H](C)C[C@@H]1C | 0.5 to 1 (≈ 0.6 to 1.2 µM) | 2 to 4 (≈ 2.4 to 4.8 µM) | – | – | – | – | GI50 [3]: 57 nM
CCCCC(=O)O[C@@H]1C=C[C@]2(O[C@H]([C@@H](CC)C(=O)[C@@H](C)[C@@H](O)[C@H](C)[C@@H]3O[C@@H]([C@@H](CC)C(=O)O)CC[C@@H]3C)[C@@H](C)C[C@H]2C)O[C@@]12CC[C@@](C)([C@H]1CC[C@](O)(CC)[C@H](C)O1)O2 | – | – | 1.56 (≈ 1.87 µM) | 3.12 (≈ 3.74 µM) | 0.78 (≈ 0.934 µM) | 1.56 (≈ 1.87 µM) | –
CC[C@@H](C(=O)[C@@H](C)[C@@H](O)[C@H](C)[C@@H]1O[C@@H]([C@@H](CC)C(=O)O)CC[C@@H]1C)[C@H]1O[C@]2(C=C[C@@H](OC(C)=O)[C@]3(CC[C@@](C)([C@H]4CC[C@](O)(CC)[C@H](C)O4)O3)O2)[C@H](C)C[C@@H]1C | – | – | 1.56 (≈ 1.97 µM) | 6.25 (≈ 7.88 µM) | 0.78 (≈ 0.984 µM) | 1.56 (≈ 1.97 µM) | –
CCC(=O)O[C@@H]1C=C[C@]2(O[C@H]([C@@H](CC)C(=O)[C@@H](C)[C@@H](O)[C@H](C)[C@@H]3O[C@@H]([C@@H](CC)C(=O)O)CC[C@@H]3C)[C@@H](C)C[C@H]2C)O[C@@]12CC[C@@](C)([C@H]1CC[C@](O)(CC)[C@H](C)O1)O2 | – | – | 0.78 (≈ 0.966 µM) | 1.56 (≈ 1.93 µM) | 0.78 (≈ 0.966 µM) | 0.78 (≈ 0.966 µM) | –
CCCC(=O)O[C@@H]1C=C[C@]2(O[C@H]([C@@H](CC)C(=O)[C@@H](C)[C@@H](O)[C@H](C)[C@@H]3O[C@@H]([C@@H](CC)C(=O)O)CC[C@@H]3C)[C@@H](C)C[C@H]2C)O[C@@]12CC[C@@](C)([C@H]1CC[C@](O)(CC)[C@H](C)O1)O2 | – | – | 0.78 (≈ 0.95 µM) | 1.56 (≈ 1.9 µM) | 0.78 (≈ 0.95 µM) | 0.78 (≈ 0.95 µM) | –
CC[C@@H](C(=O)[C@@H](C)[C@@H](O)[C@H](C)[C@@H]1O[C@@H]([C@@H](CC)C(=O)O)CC[C@@H]1C)[C@H]1O[C@]2(C=C[C@@H](OC=O)[C@]3(CC[C@@](C)([C@H]4CC[C@](O)(CC)[C@H](C)O4)O3)O2)[C@H](C)C[C@@H]1C | – | – | 3.12 (≈ 4.01 µM) | 12.5 (≈ 16 µM) | 1.56 (≈ 2 µM) | 3.12 (≈ 4.01 µM) | –
CC[C@@H](C(=O)[C@@H](C)[C@@H](O)[C@H](C)[C@@H]1O[C@@H]([C@@H](CC)C(=O)OCc2cc([N+](=O)[O-])cc([N+](=O)[O-])c2)CC[C@@H]1C)[C@H]1O[C@]2(C=C[C@@H](O)[C@]3(CC[C@@](C)([C@H]4CC[C@](O)(CC)[C@H](C)O4)O3)O2)[C@H](C)C[C@@H]1C | 8 to 16 (≈ 8.59 to 17.2 µM) | 4 to 8 (≈ 4.3 to 8.59 µM) | – | – | – | – | –
CC[C@@H](C(=O)[C@@H](C)[C@@H](O)[C@H](C)[C@@H]1O[C@@H]([C@@H](CC)C(=O)NCc2ccc(F)cc2)CC[C@@H]1C)[C@H]1O[C@]2(C=C[C@@H](O)[C@]3(CC[C@@](C)([C@H]4CC[C@](O)(CC)[C@H](C)O4)O3)O2)[C@H](C)C[C@@H]1C | 16 to 64 (≈ 18.6 to 74.6 µM) | 16 to 128 (≈ 18.6 to 149 µM) | – | – | – | – | –
O=C(N[C@H](CO)[C@H](O)c1ccc([N+](=O)[O-])cc1)C(Cl)Cl [CHLORAMPHENICOL] | – | – | – | – | – | – | MIC [10]: 3.12 µg/mL (≈ 9.66 µM)
CC[C@H]1OC(=O)[C@H](C)[C@@H](O[C@H]2C[C@@](C)(OC)[C@@H](O)[C@H](C)O2)[C@H](C)[C@@H](O[C@@H]2O[C@H](C)C[C@H](N(C)C)[C@H]2O)[C@](C)(O)C[C@@H](C)C(=O)[C@H](C)[C@@H](O)[C@]1(C)O [ERYTHROMYCIN] | – | – | – | – | – | – | MIC [10]: 3.12 µg/mL (≈ 4.25 µM)
CC[C@@H](C(=O)[C@@H](C)[C@@H](O)[C@H](C)[C@@H]1O[C@@H]([C@@H](CC)C(=O)O)CC[C@@H]1C)[C@H]1O[C@]2(C=C[C@@H](O)[C@]3(CC[C@@](C)([C@H]4CC[C@](O)(CC)[C@H](C)O4)O3)O2)[C@H](C)C[C@@H]1C [SALINOMYCIN] | 1 to 16 (≈ 1.33 to 21.3 µM) | 1 to 16 (≈ 1.33 to 21.3 µM) | 3.12 (≈ 4.15 µM) | 12.5 (≈ 16.6 µM) | 1.56 (≈ 2.08 µM) | 3.12 (≈ 4.15 µM) | MIC [11]: > 20 µg/mL; MIC [12]: 50 µg/mL (≈ 66.6 µM); MIC [13]: 50 µg/mL (≈ 66.6 µM); MIC [14]: 12.5 µg/mL (≈ 16.6 µM); MIC [15]: 12.5 µg/mL (≈ 16.6 µM); MIC [16]: 25 µg/mL (≈ 33.3 µM); MIC [17]: 50 µg/mL (≈ 66.6 µM); EC50 [18]: 0.4 µg/mL (≈ 0.533 µM); EC50 [19]: 0.09 µg/mL (≈ 0.12 µM); EC50 [20]: 400 to 4300 nM; MIC [1]: 1 to 2 µg/mL (≈ 1.33 to 2.66 µM); MIC [5]: 1 µg/mL (≈ 1.33 µM); GI50 [3]: 180 nM
CN[C@@H]1[C@H](O[C@H]2[C@H](O[C@H]3[C@H](O)[C@@H](O)[C@H](N=C(N)N)[C@@H](O)[C@@H]3N=C(N)N)O[C@@H](C)[C@]2(O)C=O)O[C@@H](CO)[C@H](O)[C@H]1O [STREPTOMYCIN] | – | – | – | – | – | – | MIC [10]: 3.12 µg/mL (≈ 5.36 µM)
CN(C)[C@@H]1C(O)=C(C(N)=O)C(=O)[C@@]2(O)C(O)=C3C(=O)c4c(O)cccc4[C@@](C)(O)[C@H]3C[C@@H]12 [TETRACYCLINE] | – | – | – | – | – | – | MIC [10]: 3.12 µg/mL (≈ 7.02 µM)
